Assay results as given in publication PMC8619434 (Viruses, 2021).
Where a name gives a salt, the structure may show the parent alone. *1 amine or outer side, *2 acyl side, *3 side chain or, on linkers, in order; H or OH if unused. Where a SMILES comes first, the peptide text is derived from it. Bridges are numbered along the chain shown (N, C = ends). [ ]: non-standard residue; d: D form. The star is where a group is joined. pTerphenylCO(4''-OnC5H11) = CCCCCOc1ccc(-c2ccc(-c3ccc(C(=O)*)cc3)cc2)cc1; Orn(4R-OH,5R-OH) = O=C([C@H](C[C@@H](O)[C@@H](O)N[*:3])N[*:1])[*:2]; hTyr(3S-OH,4S-OH) = N[C@H](C(=O)O)[C@H](O)[C@@H](O)c1ccc(O)cc1; Pro(3S-OH,4S-Me) = C[C@H]1CN[C@H](C(=O)O)[C@H]1O; Hyp = O=C(O)[C@@H]1C[C@@H](O)CN1

Assays:
[1] = tested on: VSV-G pseudovirus; test: microbe, parasite or virus in culture; assay type: cell-based, vesicular stomatitis virus; settings: for activity at 10 µM: Pseudovirus, 293T/ACE2, read-out: % Infectivity of VSV-G pv
[2] = tested on: SARS-CoV-2 spike protein pseudovirus; test: microbe, parasite or virus in culture; assay type: cell-based; settings: for activity at 10 µM: 293T/ACE2, 48 h, read-out: % Infectivity of SARS-2-Spike pv
[3] = in vitro; settings: human

Compound | activity at 10 µM [1] [%] | viability at 10 µM [3] [%] | other results
CN1CCCC(n2nc(Cc3ccc(Cl)cc3)c3ccccc3c2=O)CC1 (centres unmarked) [azelastine HCl] | 81 |  | activity at 10 µM [2]: 4%; IC50 ([2]; 293T/ACE2, read-out: IC50 of SARS-CoV-2-S pseudovirus infectivity): 4.84 µM; viability ([3]; % Viability of SARS-2-Spike pv): 98%
CN(C)CCC=C1c2ccccc2C=Cc2ccccc21 [cyclobenzaprine HCl] | 81 |  | activity at 10 µM [2]: 9%; viability ([3]; % Viability of SARS-2-Spike pv): 101%
CCOC(=O)c1c(CSc2ccccc2)n(C)c2cc(Br)c(O)c(CN(C)C)c12 [Arbidol] | 62 |  | activity at 10 µM [2]: 18%
CC(C)/N=c1\cc2n(-c3ccc(Cl)cc3)c3ccccc3nc-2cc1Nc1ccc(Cl)cc1 [Clofazimine] |  | 77 | 
NCCc1c[nH]c2ccc(O)cc12 [serotonin] |  |  | % Infectivity of SARS-2-Spike pv [2]: did not enhance infectivity
CCCCCOc1ccc(-c2ccc(-c3ccc(C(=O)N[C@H]4C[C@@H](O)[C@@H](O)NC(=O)[C@@H]5[C@@H](O)[C@@H](C)CN5C(=O)[C@H]([C@@H](C)O)NC(=O)[C@H]([C@H](O)[C@@H](O)c5ccc(O)cc5)NC(=O)[C@@H]5C[C@@H](O)CN5C(=O)[C@H]([C@@H](C)O)NC4=O)cc3)cc2)cc1 [anidulafungin] ({pTerphenylCO(4''-OnC5H11)}-[Orn(4R-OH,5R-OH)]T[Hyp][hTyr(3S-OH,4S-OH)]T[Pro(3S-OH,4S-Me)]; lactam 1-C) | 125 |  | activity at 10 µM [2]: 19%; viability ([3]; % Viability of SARS-2-Spike pv): 109%
C=C1C(=O)[C@]23[C@H](O)[C@H]1CC[C@H]2[C@@]12CO[C@]3(O)[C@@H](O)[C@@H]1C(C)(C)CC[C@@H]2O [oridonin] | 37 |  | activity at 10 µM [2]: 9%
CN1CCN(CCCN2c3ccccc3Sc3ccc(Cl)cc32)CC1 [prochlorperazine] | 80 |  | activity at 10 µM [2]: 16%; viability ([3]; % Viability of SARS-2-Spike pv): 94%
CNC(=O)c1ccccc1Sc1ccc2c(/C=C/c3ccccn3)n[nH]c2c1 [Axitinib (AG 013736), Axitinib] | 2 |  | activity at 10 µM [2]: 1%; viability ([3]; % Viability of SARS-2-Spike pv): 69%
CCOC(=O)c1ncn2c1CN(C)C(=O)c1cc(F)ccc1-2 [flumazenil] |  | 104 | 
COc1ccccc1OCCNCC(O)COc1cccc2[nH]c3ccccc3c12 (centres unmarked) [Carvedilol] |  | 81 | 
COc1cc(Nc2ncc3c(n2)-c2ccc(Cl)cc2C(c2c(F)cccc2OC)=NC3)ccc1C(=O)O [MLN8237 (Alisertib), Alisertib] | 18 | 63 | activity at 10 µM [2]: 15 to 18%; viability ([3]; % Viability of SARS-2-Spike pv): 63 to 83%
O=C1c2c(O)cccc2C([C@@H]2O[C@H](CO)[C@@H](O)[C@H](O)[C@H]2O)c2cc(CO)cc(O)c21 (some centres unmarked) [Aloin] |  | 103 | 
COc1c2occc2cc2ccc(=O)oc12 [8-methoxypsoralen] |  | 105 | 
CC(=O)O[C@H]1Cc2ccccc2N(C(N)=O)c2ccccc21 [Eslicarbazepine acetate] |  | 102 | 
CN1CCC(=C2c3ccccc3CC(=O)c3sccc32)CC1 [Ketotifen Fumarate] |  | 97 | 
COc1c2ccoc2cc2oc(=O)ccc12 [5-methoxypsoralen] |  | 111 | 
C=C1CC[C@H]2C(=C)CC[C@H]3C(=C)C(=O)O[C@@H]3[C@@H]12 [Dehydrocostus Lactone] |  | 90 | 
NCCc1c[nH]cn1 [histamine] |  |  | % Infectivity of SARS-2-Spike pv [2]: did not enhance infectivity
CN1CCN(C2=Nc3cc(Cl)ccc3Nc3ccccc32)CC1 [Clozapine] |  | 103 | 

Compound | activity at 10 µM [1] [%] | viability at 10 µM [3] [%] | other results
CCc1cccc2c3c([nH]c12)C(CC)(CC(=O)O)OCC3 (centres unmarked) [Etodolac] |  | 100 | 
Cc1cn([C@H]2C[C@H](N=[N+]=[N-])[C@@H](CO)O2)c(=O)[nH]c1=O [zidovudine] |  |  | % Infectivity of VSV-G pv [1]: potently inhibited
CC(=O)Oc1cccc2c1C(=O)c1c(OC(C)=O)cc(C(=O)O)cc1C2=O [Diacerein] |  | 126 | 
Clc1ccc2c(c1)CCc1cccnc1C2=C1CCNCC1 [desloratadine] | 82 |  | viability ([3]; % Viability of SARS-2-Spike pv): 99%
CCC(=O)NCC[C@@H]1CCc2ccc3c(c21)CCO3 [Ramelteon] |  | 99 | 
Cc1ccnc2c1NC(=O)c1cccnc1N2C1CC1 [Nevirapine] |  | 103 | 
COc1cc2c(Oc3ccc(NC(=O)C4(C(=O)Nc5ccc(F)cc5)CC4)cc3F)ccnc2cc1OCCCN1CCOCC1 [Foretinib (GSK1363089), Foretinib] | 11 |  | activity at 10 µM [2]: 10%; viability ([3]; % Viability of SARS-2-Spike pv): 63%
CN1CCN2c3ncccc3Cc3ccccc3C2C1 (centres unmarked) [Mirtazapine] |  | 104 | 
NC(=O)N1c2ccccc2CC(=O)c2ccccc21 [Oxcarbazepine] |  | 109 | 
CN1CCC(=C2c3ccccc3CCn3c(C=O)cnc32)CC1 [Alcaftadine] |  | 97 | 
C[C@]12CC[C@@H]3c4ccc(O)cc4CC[C@H]3[C@@H]1CC[C@@H]2O [estradiol] |  |  | % Infectivity of SARS-2-Spike pv [2]: did not enhance infectivity
Clc1ccc2c(c1)C(N1CCNCC1)=Nc1ccccc1O2 [amoxapine] | 95 |  | activity at 10 µM [2]: 20%; viability ([3]; % Viability of SARS-2-Spike pv): 103%
CN(C)CCCN1c2ccccc2CCc2ccc(Cl)cc21 [clomipramine HCl] | 78 |  | activity at 10 µM [2]: 9%; viability ([3]; % Viability of SARS-2-Spike pv): 115%
CN1CCCCC1CCN1c2ccccc2Sc2ccc([S+](C)[O-])cc21 (centres unmarked) [Mesoridazine besylate] |  |  | viability at 10 µM ([3]; % viability (Table S3)): 97%
c1cn2cc(-c3ccc4cn[nH]c4c3)nc(Nc3ccc(N4CCOCC4)cc3)c2n1 [GS-9973] | 1 |  | activity at 10 µM [2]: 0%; viability [3]: 69%
COc1ccc2cc1Oc1ccc(cc1)C[C@H]1c3cc(c(OC)cc3CCN1C)Oc1c(OC)c(OC)cc3c1[C@H](C2)N(C)CC3 [tetrandrine] | 39 |  | activity at 10 µM [2]: 1%
CCOC(=O)c1ccc(C#Cc2ccc3c(c2)C(C)(C)CCS3)nc1 [tazarotene] | 102 |  | activity at 10 µM [2]: 225%; viability ([3]; % Viability of SARS-2-Spike pv): 107%
CC/C(=C(\c1ccccc1)c1ccc(OCCN(C)C)cc1)c1ccccc1 [tamoxifen citrate] | 81 |  | activity at 10 µM [2]: 10%; viability ([3]; % Viability of SARS-2-Spike pv): 107%
COc1cc2c(cc1OC)CN(CCc1ccc(NC(=O)c3cccc4c(=O)c5cccc(OC)c5[nH]c34)cc1)CC2 [elacridar] |  | 97 | 
CC(C(=O)O)c1ccc2c(c1)Cc1cccnc1O2 (centres unmarked) [Pranoprofen] |  | 114 | 

Compound | activity at 10 µM [1] [%] | viability at 10 µM [3] [%] | other results
Nc1c2c(nc3ccccc13)CCCC2 [Tacrine hydrochloride] |  |  | viability at 10 µM ([3]; % viability (Table S3)): 97%
CC(=O)OCC[N+](C)(C)C [acetylcholine] |  |  | % Infectivity of SARS-2-Spike pv [2]: did not enhance infectivity
C[C@]12CCC(=O)C=C1[C@@H]1C[C@@H]1[C@H]1[C@@H]3[C@@H]4C[C@@H]4[C@@]4(CCC(=O)O4)[C@@]3(C)CC[C@@H]12 [Drospirenone] | 381 |  | 
C[C@]12CC[C@@H]3c4ccc(O)cc4CC[C@H]3[C@@H]1C[C@@H](O)[C@@H]2O [estriol] |  |  | % Infectivity of SARS-2-Spike pv [2]: did not enhance infectivity
NC(=O)N1c2ccccc2C=Cc2ccccc21 [Carbamazepine] |  | 105 | 
NC(=O)N1CCC(CC(=O)N2CCC([C@H]3c4ncc(Br)cc4CCc4cc(Cl)cc(Br)c43)CC2)CC1 [lonafarnib] |  | 111 | 
NC1=NCC2c3ccccc3Cc3ccccc3N12 (centres unmarked) [Epinastine HCl] |  |  | viability at 10 µM ([3]; % viability (Table S3)): 94%
CC(C(=O)O)c1ccc2c(c1)[nH]c1ccc(Cl)cc12 (centres unmarked) [Carprofen] |  | 103 | 
CN1CCN2c3ccccc3Cc3ccccc3C2C1 (centres unmarked) [mianserin Hcl] |  | 100 | 
CN(C)CC/C=C1/c2ccccc2COc2ccc(CC(=O)O)cc21 [Olopatadine HCl] |  | 99 | 
OCCOCCN1CCN(C2=Nc3ccccc3Sc3ccccc32)CC1 [Quetiapine Fumarate] |  |  | viability at 10 µM ([3]; % viability (Table S3)): 96%
CC(=O)c1c(C)c2cnc(Nc3ccc(N4CCNCC4)cn3)nc2n(C2CCCC2)c1=O.Cl [palbociclib HCl] |  |  | % Infectivity of VSV-G pv [1]: 63%
COc1ccc2cc1Oc1ccc(cc1)C[C@H]1c3c(cc4c(c3Oc3cc5c(cc3OC)CCN(C)[C@@H]5C2)OCO4)CCN1C [cepharanthine] | 1 |  | activity at 10 µM [2]: 1%
CN1CCN(C2=Nc3ccccc3Oc3ccc(Cl)cc32)CC1 [Loxapine Succinate] |  | 94 | 
CC(=O)[C@H]1CC[C@H]2[C@@H]3CCC4=CC(=O)CC[C@]4(C)[C@H]3CC[C@]12C [progesterone] |  |  | % Infectivity of SARS-2-Spike pv [2]: did not enhance infectivity
c1ccc2c(c1)sc1ccccc12 [Dibenzothiophene] |  | 102 | 
CC(=O)c1c(C)c2cnc(Nc3ccc(N4CCNCC4)cn3)nc2n(C2CCCC2)c1=O [palbociclib isethionate] | 32 |  | 
Cc1cc2c(s1)Nc1ccccc1N=C2N1CCN(C)CC1 [Olanzapine] |  | 106 | 
